Columns and labels:
Format in all cases: cell-based
E. coli DH5α = test: Antibacterial activity: MIC and growth curve against E. coli DH5α in 96-well plate; details: minimal inhibitory concentration against E. coli DH5α; 96-well plate, 5×10^5 CFU/mL, 37° C., judged after 8 h
Summary of the method: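 Log-phase DH5α (OD600 about 0.5, 37° C, 185 rpm in LB) was pelleted, resuspended in fresh LB and seeded at 5×10^5 CFU/mL with recombinant protein at 50, 25 and 12.5 μg/mL (two-fold series), in triplicate. Plates were shaken at 175 rpm, 37° C, and OD600 was read every 30 min. MIC was the lowest concentration with no growth.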

E. coli BL21 = test: MIC against Gram-negative bacteria: E. coli BL21; details: 5×10^5 CFU/mL
Summary of the method: (§1)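 Read-out is absence of bacterial growth, with MIC set at the lowest recombinant protein concentration achieving it. Bacteria, pre-grown in LB to McFarland 0.5 and resuspended, were exposed at 5×10^5 CFU/mL to two-fold diluted human EGF domain proteins in triplicate at 37° C, 175 rpm.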

Pseudomonas aeruginosa = test: MIC against Gram-negative bacteria: Pseudomonas aeruginosa; details: 5×10^5 CFU/mL
Summary of the method: as §1

Klebsiella pneumonia = test: MIC against Gram-negative bacteria: Klebsiella pneumonia; details: 5×10^5 CFU/mL
Summary of the method: as §1

Enterobacter cloacae = test: MIC against Gram-negative bacteria: Enterobacter cloacae; details: 5×10^5 CFU/mL
Summary of the method: as §1

Aeromonas hydrophila = test: MIC against Gram-negative bacteria: Aeromonas hydrophila; details: 5×10^5 CFU/mL
Summary of the method: as §1

Citrobacter diversus = test: MIC against Gram-negative bacteria: Citrobacter diversus; details: 5×10^5 CFU/mL
Summary of the method: as §1

Moraxella catarrhalis = test: MIC against Gram-negative bacteria: Moraxella catarrhalis; details: 5×10^5 CFU/mL
Summary of the method: as §1

Proteus mirabilis = test: MIC against Gram-negative bacteria: Proteus mirabilis; details: 5×10^5 CFU/mL
Summary of the method: as §1

Proteus vulgaris = test: MIC against Gram-negative bacteria: Proteus vulgaris; details: 5×10^5 CFU/mL
Summary of the method: as §1

Serratia marcescens = test: MIC against Gram-negative bacteria: Serratia marcescens; details: 5×10^5 CFU/mL
Summary of the method: as §1

[1] = 10 h cultivation at 37° C., two-fold serial dilution
[2] = E. coli BL21, 10 h cultivation at 37° C.
[3] = P. aeruginosa, 10 h cultivation at 37° C.
[4] = K. pneumonia, 10 h cultivation at 37° C.
[5] = E. cloacae, 10 h cultivation at 37° C.
[6] = A. hydrophila, 10 h cultivation at 37° C.
[7] = C. diversus, 10 h cultivation at 37° C.
[8] = M. catarrhalis, 10 h cultivation at 37° C.
[9] = P. mirabilis, 10 h cultivation at 37° C.
[10] = P. vulgaris, 10 h cultivation at 37° C.
[11] = S. marcescens, 10 h cultivation at 37° C.
[12] = E. coli BL21, 96-well plate, 37° C., 10 h
[13] = Pseudomonas aeruginosa, 96-well plate, 37° C., 10 h
[14] = Klebsiella pneumonia, 96-well plate, 37° C., 10 h
[15] = Enterobacter cloacae, 96-well plate, 37° C., 10 h
[16] = Aeromonas hydrophila, 96-well plate, 37° C., 10 h
[17] = Citrobacter diversus, 96-well plate, 37° C., 10 h
[18] = Moraxella catarrhalis, 96-well plate, 37° C., 10 h
[19] = Proteus mirabilis, 96-well plate, 37° C., 10 h
[20] = Proteus vulgaris, 96-well plate, 37° C., 10 h
[21] = Serratia marcescens, 96-well plate, 37° C., 10 h

Substance: PRT1049 (WGENCAQTCQCHHGGTCHPQDGSCICPLGWTGHHCL; listed as Homo sapiens)
- MIC (E. coli DH5α): 12.5 µg/mL
- MIC E. coli BL21 (E. coli BL21; [1]): 25 µg/mL
- MIC P. aeruginosa (Pseudomonas aeruginosa; [1]): 12.5 µg/mL
- MIC K. pneumonia (Klebsiella pneumonia; [1]): 25 µg/mL
- MIC E. cloacae (Enterobacter cloacae; [1]): 12.5 µg/mL
- MIC A. hydrophila (Aeromonas hydrophila; [1]): 12.5 µg/mL
- MIC C. diversus (Citrobacter diversus; [1]): 12.5 µg/mL
- MIC M. catarrhalis (Moraxella catarrhalis; [1]): 12.5 µg/mL
- MIC P. mirabilis (Proteus mirabilis; [1]): 50 µg/mL
- MIC P. vulgaris (Proteus vulgaris; [1]): 12.5 µg/mL
- MIC S. marcescens (Serratia marcescens; [1]): 50 µg/mL

Substance: PRT841 (PEDECANGHHDCNETQNCHDQPHGYECSCKTGYTMDNMT; listed as Homo sapiens)
- MIC (E. coli DH5α): 12.5 µg/mL
- MIC (μg/mL) E. coli BL21 (E. coli BL21; [2]): 25 µg/mL
- MIC (μg/mL) P. aeruginosa (Pseudomonas aeruginosa; [3]): 12.5 µg/mL
- MIC (μg/mL) K. pneumonia (Klebsiella pneumonia; [4]): 50 µg/mL
- MIC (μg/mL) E. cloacae (Enterobacter cloacae; [5]): 12.5 µg/mL
- MIC (μg/mL) A. hydrophila (Aeromonas hydrophila; [6]): 50 µg/mL
- MIC (μg/mL) C. diversus (Citrobacter diversus; [7]): 12.5 µg/mL
- MIC (μg/mL) M. catarrhalis (Moraxella catarrhalis; [8]): 50 µg/mL
- MIC (μg/mL) P. mirabilis (Proteus mirabilis; [9]): 12.5 µg/mL
- MIC (μg/mL) P. vulgaris (Proteus vulgaris; [10]): 50 µg/mL
- MIC (μg/mL) S. marcescens (Serratia marcescens; [11]): 12.5 µg/mL

Substance: PRT849 (CPCSAVTSTGSCSIKSSELEPECDQCKDGYIGPNCNKCENGYYNFDSICRK; listed as Homo sapiens)
- MIC (E. coli DH5α): 12.5 µg/mL
- MIC (μg/mL) E. coli BL21 (E. coli BL21; [2]): 12.5 µg/mL
- MIC (μg/mL) P. aeruginosa (Pseudomonas aeruginosa; [3]): 12.5 µg/mL
- MIC (μg/mL) K. pneumonia (Klebsiella pneumonia; [4]): 12.5 µg/mL
- MIC (μg/mL) E. cloacae (Enterobacter cloacae; [5]): 12.5 µg/mL
- MIC (μg/mL) A. hydrophila (Aeromonas hydrophila; [6]): 25 µg/mL
- MIC (μg/mL) C. diversus (Citrobacter diversus; [7]): 12.5 µg/mL
- MIC (μg/mL) M. catarrhalis (Moraxella catarrhalis; [8]): 25 µg/mL
- MIC (μg/mL) P. mirabilis (Proteus mirabilis; [9]): 12.5 µg/mL
- MIC (μg/mL) P. vulgaris (Proteus vulgaris; [10]): 12.5 µg/mL
- MIC (μg/mL) S. marcescens (Serratia marcescens; [11]): 25 µg/mL

Substance: PRT1215 (SNDPCVEKPCPGDMQCVSYEASRRPFLCQCPPGKLGECS; listed as Homo sapiens)
- MIC (E. coli DH5α): 25 µg/mL
- MIC against E. coli BL21 (E. coli BL21; [12]): 50 µg/mL
- MIC against P. aeruginosa (Pseudomonas aeruginosa; [13]): 12.5 µg/mL
- MIC against K. pneumonia (Klebsiella pneumonia; [14]): 25 µg/mL
- MIC against E. cloacae (Enterobacter cloacae; [15]): 50 µg/mL
- MIC against A. hydrophila (Aeromonas hydrophila; [16]): 12.5 µg/mL
- MIC against C. diversus (Citrobacter diversus; [17]): 25 µg/mL
- MIC against M. catarrhalis (Moraxella catarrhalis; [18]): 50 µg/mL
- MIC against P. mirabilis (Proteus mirabilis; [19]): 25 µg/mL
- MIC against P. vulgaris (Proteus vulgaris; [20]): 12.5 µg/mL
- MIC against S. marcescens (Serratia marcescens; [21]): 25 µg/mL

Substance: PRT754 (IQDLCAMEDHNCEQLCVNVPGSFVCQCYSGYALAEDGKRCV; listed as Homo sapiens)
- MIC (E. coli DH5α): 25 µg/mL
- MIC (μg/mL) E. coli BL21 (E. coli BL21; [2]): 12.5 µg/mL
- MIC (μg/mL) P. aeruginosa (Pseudomonas aeruginosa; [3]): 50 µg/mL
- MIC (μg/mL) K. pneumonia (Klebsiella pneumonia; [4]): 25 µg/mL
- MIC (μg/mL) E. cloacae (Enterobacter cloacae; [5]): 12.5 µg/mL
- MIC (μg/mL) A. hydrophila (Aeromonas hydrophila; [6]): 25 µg/mL
- MIC (μg/mL) C. diversus (Citrobacter diversus; [7]): 50 µg/mL
- MIC (μg/mL) M. catarrhalis (Moraxella catarrhalis; [8]): 25 µg/mL
- MIC (μg/mL) P. mirabilis (Proteus mirabilis; [9]): 12.5 µg/mL
- MIC (μg/mL) P. vulgaris (Proteus vulgaris; [10]): 50 µg/mL
- MIC (μg/mL) S. marcescens (Serratia marcescens; [11]): 25 µg/mL

Substance: PRT91 (DTNECIQFPFVCPRDKPVCVNTYGSYRCRTNKKCSRGYEPNEDGTAC; listed as Homo sapiens)
- MIC (E. coli DH5α): 12.5 µg/mL
- MIC (μg/mL) E. coli BL21 (E. coli BL21; [12]): 12.5 µg/mL
- MIC (μg/mL) P. aeruginosa (Pseudomonas aeruginosa; [13]): 12.5 µg/mL
- MIC (μg/mL) K. pneumonia (Klebsiella pneumonia; [14]): 12.5 µg/mL
- MIC (μg/mL) E. cloacae (Enterobacter cloacae; [15]): 12.5 µg/mL
- MIC (μg/mL) A. hydrophila (Aeromonas hydrophila; [16]): 25 µg/mL
- MIC (μg/mL) C. diversus (Citrobacter diversus; [17]): 12.5 µg/mL
- MIC (μg/mL) M. catarrhalis (Moraxella catarrhalis; [18]): 25 µg/mL
- MIC (μg/mL) P. mirabilis (Proteus mirabilis; [19]): 12.5 µg/mL
- MIC (μg/mL) P. vulgaris (Proteus vulgaris; [20]): 50 µg/mL
- MIC (μg/mL) S. marcescens (Serratia marcescens; [21]): 12.5 µg/mL

Substance: PRT442 (DINECEQVPKPCAHQCSNTPGSFKCICPPGQHLLGDGKSCA; listed as Homo sapiens)
- MIC (E. coli DH5α): 12.5 µg/mL
- MIC (E. coli BL21; [2]): 50 µg/mL
- MIC (Pseudomonas aeruginosa; [3]): 25 µg/mL
- MIC (Klebsiella pneumonia; [4]): 12.5 µg/mL
- MIC (Enterobacter cloacae; [5]): 25 µg/mL
- MIC (Aeromonas hydrophila; [6]): 50 µg/mL
- MIC (Citrobacter diversus; [7]): 25 µg/mL
- MIC (Moraxella catarrhalis; [8]): 12.5 µg/mL
- MIC (Proteus mirabilis; [9]): 12.5 µg/mL
- MIC (Proteus vulgaris; [10]): 12.5 µg/mL
- MIC (Serratia marcescens; [11]): 25 µg/mL
